Test results from US20230365592A1 (Agios Pharmaceuticals, Inc., priority 2022, published 2023).

The molecules below were run against T1, human PAH with the R408W mutation (Homo sapiens, UniProt P00439, R408W) (assay: Cell Based Phenylalanine Flux Assay). Conditions: A375 cells expressing human R408W PAH; 24 hrs compound incubation; 13C-Tyrosine by LC-MS; average where tested multiple times; read-out: AC50.
T1 construct: expressed in transfected cells
T1 sequence (P00439 1-452 R408W): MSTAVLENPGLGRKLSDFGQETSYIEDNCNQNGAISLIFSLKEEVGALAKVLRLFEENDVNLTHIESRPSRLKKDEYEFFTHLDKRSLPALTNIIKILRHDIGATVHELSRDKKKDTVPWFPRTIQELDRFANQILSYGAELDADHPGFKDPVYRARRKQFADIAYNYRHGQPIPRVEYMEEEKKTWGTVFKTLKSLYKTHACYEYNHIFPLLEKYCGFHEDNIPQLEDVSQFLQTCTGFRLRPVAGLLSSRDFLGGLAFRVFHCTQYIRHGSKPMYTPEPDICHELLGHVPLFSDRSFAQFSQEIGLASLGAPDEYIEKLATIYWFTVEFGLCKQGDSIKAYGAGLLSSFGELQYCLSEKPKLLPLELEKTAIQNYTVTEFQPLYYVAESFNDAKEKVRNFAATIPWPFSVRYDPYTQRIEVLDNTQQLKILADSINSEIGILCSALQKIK
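Further: after compound treatment, cells received sepiapterin plus isotope-labelled Phenylalanine for 4 hours, then labelled Tyrosine in the medium was quantified, 10-point 2-fold dilution series run in duplicate.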

| AC50 [nM] | Structure (SMILES) |
| --- | --- |
| < 500 | FC(F)(F)c1cnc(N2CCc3[nH]cnc3[C@H]2c2cc3c(C(F)(F)F)cccn3n2)nc1 [Example 1774, (S)-4-(4-(trifluoromethyl)pyrazolo[1,5-a]pyridin-2-yl)-5-(5-(trifluoromethyl)pyrimidin-2-yl)-4,5,6,7-tetrahydro-1H-imidazo[4,5-c]pyridine] |
| > 5000 | FC(F)(F)c1cnc(N2CCc3[nH]cnc3[C@@H]2c2cc3c(C(F)(F)F)cccn3n2)nc1 [Example 1775, (R)-4-(4-(trifluoromethyl)pyrazolo[1,5-a]pyridin-2-yl)-5-(5-(trifluoromethyl)pyrimidin-2-yl)-4,5,6,7-tetrahydro-1H-imidazo[4,5-c]pyridine] |
| < 500 | FC(F)c1cccn2nc([C@@H]3c4nc[nH]c4CCN3c3ncc(C(F)(F)F)cn3)cc12 [Example 1776, (S)-4-(4-(difluoromethyl)pyrazolo[1,5-a]pyridin-2-yl)-5-(5-(trifluoromethyl)pyrimidin-2-yl)-4,5,6,7-tetrahydro-1H-imidazo[4,5-c]pyridine] |
| > 5000 | FC(F)c1cccn2nc([C@H]3c4nc[nH]c4CCN3c3ncc(C(F)(F)F)cn3)cc12 [Example 1777, (R)-4-(4-(difluoromethyl)pyrazolo[1,5-a]pyridin-2-yl)-5-(5-(trifluoromethyl)pyrimidin-2-yl)-4,5,6,7-tetrahydro-1H-imidazo[4,5-c]pyridine] |
| < 500 | FC(F)(F)c1cnc(N2CCc3[nH]cnc3[C@H]2c2cc3c(Cl)cccn3n2)nc1 [Example 1780, (S)-4-(4-chloropyrazolo[1,5-a]pyridin-2-yl)-5-(5-(trifluoromethyl)pyrimidin-2-yl)-4,5,6,7-tetrahydro-1H-imidazo[4,5-c]pyridine] |
| > 5000 | FC(F)(F)c1cnc(N2CCc3[nH]cnc3[C@@H]2c2cc3c(Cl)cccn3n2)nc1 [Example 1781, (R)-4-(4-chloropyrazolo[1,5-a]pyridin-2-yl)-5-(5-(trifluoromethyl)pyrimidin-2-yl)-4,5,6,7-tetrahydro-1H-imidazo[4,5-c]pyridine] |

The remaining lines, values behind:

| Structure (SMILES) | AC50 [nM] |
| --- | --- |
| CC(C)(C)c1nnc(C(=O)N2CCc3[nH]cnc3[C@H]2c2cc3c(OC(F)(F)F)cccn3n2)o1 [Example 1759, (S)-(5-(tert-butyl)-1,3,4-oxadiazol-2-yl)(4-(4-(trifluoromethoxy)pyrazolo[1,5-a]pyridin-2-yl)-6,7-dihydro-1H-imidazo[4,5-c]pyridin-5(4H)-yl)methanone] | 500 to 1000 |
| O=C(c1nnc(-c2ccccn2)o1)N1CCc2[nH]cnc2[C@H]1c1cc2c(OC(F)(F)F)cccn2n1 [Example 1760, (S)-(5-(pyridin-2-yl)-1,3,4-oxadiazol-2-yl)(4-(4-(trifluoromethoxy)pyrazolo[1,5-a]pyridin-2-yl)-6,7-dihydro-1H-imidazo[4,5-c]pyridin-5(4H)-yl)methanone] | < 500 |
| FC(F)c1cccn2nc([C@@H]3c4nc[nH]c4CCN3c3ncccn3)cc12 [Example 1762, (S)-4-(4-(difluoromethyl)pyrazolo[1,5-a]pyridin-2-yl)-5-(pyrimidin-2-yl)-4,5,6,7-tetrahydro-1H-imidazo[4,5-c]pyridine] | < 500 |
| FC(F)c1cccn2nc([C@H]3c4nc[nH]c4CCN3c3ncccn3)cc12 [Example 1763, (R)-4-(4-(difluoromethyl)pyrazolo[1,5-a]pyridin-2-yl)-5-(pyrimidin-2-yl)-4,5,6,7-tetrahydro-1H-imidazo[4,5-c]pyridine] | 1000 to 5000 |
| FC(F)(F)c1cccc2cc([C@H]3c4nc[nH]c4CCN3c3ncccn3)nn12 [Example 1764, (R)-5-(pyrimidin-2-yl)-4-(7-(trifluoromethyl)pyrazolo[1,5-a]pyridin-2-yl)-4,5,6,7-tetrahydro-1H-imidazo[4,5-c]pyridine] | 1000 to 5000 |
| FC(F)(F)c1cccc2cc([C@@H]3c4nc[nH]c4CCN3c3ncccn3)nn12 [Example 1765, (S)-5-(pyrimidin-2-yl)-4-(7-(trifluoromethyl)pyrazolo[1,5-a]pyridin-2-yl)-4,5,6,7-tetrahydro-1H-imidazo[4,5-c]pyridine] | 500 to 1000 |
| FC(F)c1cccn2nc([C@@H]3c4nc[nH]c4CCN3c3nnc(C(F)(F)F)o3)cc12 [Example 1767, (S)-2-(4-(4-(difluoromethyl)pyrazolo[1,5-a]pyridin-2-yl)-6,7-dihydro-1H-imidazo[4,5-c]pyridin-5(4H)-yl)-5-(trifluoromethyl)-1,3,4-oxadiazole] | < 500 |
| O=C(c1cnn2cc(C3CC3)ccc12)N1CCc2[nH]cnc2[C@H]1c1cc2c(Cl)cccn2n1 [Example 1768, (S)-(4-(4-chloropyrazolo[1,5-a]pyridin-2-yl)-6,7-dihydro-1H-imidazo[4,5-c]pyridin-5(4H)-yl)(6-cyclopropylpyrazolo[1,5-a]pyridin-3-yl)methanone] | < 500 |
| O=C(c1cnn2cc(C3CC3)ccc12)N1CCc2[nH]cnc2[C@@H]1c1cc2c(Cl)cccn2n1 [Example 1769, (R)-(4-(4-chloropyrazolo[1,5-a]pyridin-2-yl)-6,7-dihydro-1H-imidazo[4,5-c]pyridin-5(4H)-yl)(6-cyclopropylpyrazolo[1,5-a]pyridin-3-yl)methanone] | 1000 to 5000 |
| CN(C)c1ccc2c(C(=O)N3CCc4[nH]cnc4[C@H]3c3cc4c(C(F)F)cccn4n3)cnn2c1 [Example 1770, (S)-(4-(4-(difluoromethyl)pyrazolo[1,5-a]pyridin-2-yl)-6,7-dihydro-1H-imidazo[4,5-c]pyridin-5(4H)-yl)(6-(dimethylamino)pyrazolo[1,5-a]pyridin-3-yl)methanone] | 500 to 1000 |
| CN(C)c1ccc2c(C(=O)N3CCc4[nH]cnc4[C@@H]3c3cc4c(C(F)F)cccn4n3)cnn2c1 [Example 1771, (R)-(4-(4-(difluoromethyl)pyrazolo[1,5-a]pyridin-2-yl)-6,7-dihydro-1H-imidazo[4,5-c]pyridin-5(4H)-yl)(6-(dimethylamino)pyrazolo[1,5-a]pyridin-3-yl)methanone] | > 5000 |
| CN(C)c1ccc2c(C(=O)N3CCc4[nH]cnc4[C@@H]3c3cc4c(F)cccn4n3)cnn2c1 [Example 1773, (R)-(6-(dimethylamino)pyrazolo[1,5-a]pyridin-3-yl)(4-(4-fluoropyrazolo[1,5-a]pyridin-2-yl)-6,7-dihydro-1H-imidazo[4,5-c]pyridin-5(4H)-yl)methanone] | > 5000 |
| O=C(c1nnc(-c2cnn(C(F)F)c2)o1)N1CCc2[nH]cnc2[C@H]1c1cc2c(OC(F)(F)F)cccn2n1 [Example 1782, (S)-(5-(1-(difluoromethyl)-1H-pyrazol-4-yl)-1,3,4-oxadiazol-2-yl)(4-(4-(trifluoromethoxy)pyrazolo[1,5-a]pyridin-2-yl)-6,7-dihydro-1H-imidazo[4,5-c]pyridin-5(4H)-yl)methanone] | 500 to 1000 |
| COCCc1ccc2c(C(=O)N3CCc4[nH]cnc4[C@H]3c3cc4c(C(F)(F)F)cccn4n3)cnn2c1 [Example 1784, (S)-(6-(2-methoxyethyl)pyrazolo[1,5-a]pyridin-3-yl)(4-(4-(trifluoromethyl)pyrazolo[1,5-a]pyridin-2-yl)-1,4,6,7-tetrahydro-5H-imidazo[4,5-c]pyridin-5-yl)methanone] | 500 to 1000 |
| Cc1ccc2c(C(=O)N3CCc4[nH]cnc4[C@H]3c3cc4cccc(F)n4n3)cnn2c1 [Example 1786, (S)-(4-(7-fluoropyrazolo[1,5-a]pyridin-2-yl)-6,7-dihydro-1H-imidazo[4,5-c]pyridin-5(4H)-yl)(6-methylpyrazolo[1,5-a]pyridin-3-yl)methanone] | 500 to 1000 |
